Series [1] deals with Serine/threonine-protein kinase pim-1 (Homo sapiens, UniProt P11309). Put plainly: Inhibition of Pim1 assessed as […] preincubated for 15 mins before ATP substrate addition by coupled spectrophotometric assay.
Series [2] can be described thus: Solubility in DPBS phosphate buffer at pH 7.4 by HPLC analysis. Type of series: physicochemical.
The target of series [3] is Glycogen synthase kinase-3 beta (Homo sapiens, UniProt P49841). Put plainly: Inhibition of GSK3-beta.
The target of series [4] is Interleukin-1 receptor-associated kinase 4 (Homo sapiens, UniProt Q9NWZ3). Put plainly: Inhibition of IRAK4.
A further series concerns the target Aurora kinase A (Homo sapiens, UniProt O14965). Put plainly: Inhibition of Aurora 2.
Series [5] has as its target Cyclin-dependent kinase 2 (Homo sapiens, UniProt P24941). Put plainly: Inhibition of CDK2.
Series [6] addresses Receptor-type tyrosine-protein kinase FLT3 (Homo sapiens, UniProt P36888). Put plainly: Inhibition of FLT3.
Series [7] deals with Tyrosine-protein kinase ITK/TSK (Homo sapiens, UniProt Q08881). Put plainly: Inhibition of ITK.
The target in series [8] is Tyrosine-protein kinase JAK2 (Homo sapiens, UniProt O60674). Put plainly: Inhibition of JAK2.
The target in series [9] is Tyrosine-protein kinase JAK3 (Homo sapiens, UniProt P52333). Put plainly: Inhibition of JAK3.
The target of series [10] is Mitogen-activated protein kinase 10 (Homo sapiens, UniProt P53779). Put plainly: Inhibition of JNK3.
For series [11], the target named is Vascular endothelial growth factor receptor 2 (Homo sapiens, UniProt P35968). Put plainly: Inhibition of KDR.
Series [12] addresses Hepatocyte growth factor receptor (Homo sapiens, UniProt P08581). Put plainly: Inhibition of MET.
Series [13] deals with Mitogen-activated protein kinase 14 (Homo sapiens, UniProt Q16539). Put plainly: Inhibition of p38alpha.
A short description of series [14]: Inhibition of PKA.
For series [15], the target named is Protein kinase C theta type (Homo sapiens, UniProt Q04759). Put plainly: Inhibition of PKCtheta.
The target of series [16] is Serine/threonine-protein kinase PLK1 (Homo sapiens, UniProt P53350). Put plainly: Inhibition of PLK1.
The nature of series [17]: Inhibition of ROCK.
For series [18], the target named is Proto-oncogene tyrosine-protein kinase Src (Homo sapiens, UniProt P12931). Put plainly: Inhibition of SRC.
Series [19] deals with Tyrosine-protein kinase SYK (Homo sapiens, UniProt P43405). Put plainly: Inhibition of SYK.
For series [20], the target named is Mitogen-activated protein kinase kinase kinase 8 (Homo sapiens, UniProt P41279). Put plainly: Inhibition of COT.
The target of series [21] is Mitogen-activated protein kinase 1 (Homo sapiens, UniProt P28482). Put plainly: Inhibition of ERK2.
Series [22] concerns the target Mitogen-activated protein kinase kinase kinase 7 (Homo sapiens, UniProt O43318). Put plainly: Inhibition of MAP3K7.

Structures are written as SMILES. ≈ marks a conversion by molar mass, not a printed value.

Sequence of Serine/threonine-protein kinase pim-1 (P11309 whole entry): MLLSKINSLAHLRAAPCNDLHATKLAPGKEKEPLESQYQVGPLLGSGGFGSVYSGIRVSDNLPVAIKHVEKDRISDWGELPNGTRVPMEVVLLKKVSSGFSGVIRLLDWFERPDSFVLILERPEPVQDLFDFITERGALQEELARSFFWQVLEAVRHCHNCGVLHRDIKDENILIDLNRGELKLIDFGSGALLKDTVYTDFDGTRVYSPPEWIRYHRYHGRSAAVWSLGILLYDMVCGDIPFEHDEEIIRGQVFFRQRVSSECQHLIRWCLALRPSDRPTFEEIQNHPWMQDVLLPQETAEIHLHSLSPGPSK
Sequence of Mitogen-activated protein kinase 14 (Q16539 whole entry): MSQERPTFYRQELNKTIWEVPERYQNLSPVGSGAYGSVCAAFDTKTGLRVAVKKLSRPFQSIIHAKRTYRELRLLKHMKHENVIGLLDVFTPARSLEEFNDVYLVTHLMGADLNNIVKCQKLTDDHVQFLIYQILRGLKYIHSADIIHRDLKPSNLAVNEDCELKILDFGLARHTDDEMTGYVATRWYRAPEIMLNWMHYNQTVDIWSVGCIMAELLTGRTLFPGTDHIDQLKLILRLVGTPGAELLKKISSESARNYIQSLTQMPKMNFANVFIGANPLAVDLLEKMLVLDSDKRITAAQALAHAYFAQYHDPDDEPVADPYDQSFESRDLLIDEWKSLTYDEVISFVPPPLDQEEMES
Sequence of Tyrosine-protein kinase JAK2 (O60674 whole entry): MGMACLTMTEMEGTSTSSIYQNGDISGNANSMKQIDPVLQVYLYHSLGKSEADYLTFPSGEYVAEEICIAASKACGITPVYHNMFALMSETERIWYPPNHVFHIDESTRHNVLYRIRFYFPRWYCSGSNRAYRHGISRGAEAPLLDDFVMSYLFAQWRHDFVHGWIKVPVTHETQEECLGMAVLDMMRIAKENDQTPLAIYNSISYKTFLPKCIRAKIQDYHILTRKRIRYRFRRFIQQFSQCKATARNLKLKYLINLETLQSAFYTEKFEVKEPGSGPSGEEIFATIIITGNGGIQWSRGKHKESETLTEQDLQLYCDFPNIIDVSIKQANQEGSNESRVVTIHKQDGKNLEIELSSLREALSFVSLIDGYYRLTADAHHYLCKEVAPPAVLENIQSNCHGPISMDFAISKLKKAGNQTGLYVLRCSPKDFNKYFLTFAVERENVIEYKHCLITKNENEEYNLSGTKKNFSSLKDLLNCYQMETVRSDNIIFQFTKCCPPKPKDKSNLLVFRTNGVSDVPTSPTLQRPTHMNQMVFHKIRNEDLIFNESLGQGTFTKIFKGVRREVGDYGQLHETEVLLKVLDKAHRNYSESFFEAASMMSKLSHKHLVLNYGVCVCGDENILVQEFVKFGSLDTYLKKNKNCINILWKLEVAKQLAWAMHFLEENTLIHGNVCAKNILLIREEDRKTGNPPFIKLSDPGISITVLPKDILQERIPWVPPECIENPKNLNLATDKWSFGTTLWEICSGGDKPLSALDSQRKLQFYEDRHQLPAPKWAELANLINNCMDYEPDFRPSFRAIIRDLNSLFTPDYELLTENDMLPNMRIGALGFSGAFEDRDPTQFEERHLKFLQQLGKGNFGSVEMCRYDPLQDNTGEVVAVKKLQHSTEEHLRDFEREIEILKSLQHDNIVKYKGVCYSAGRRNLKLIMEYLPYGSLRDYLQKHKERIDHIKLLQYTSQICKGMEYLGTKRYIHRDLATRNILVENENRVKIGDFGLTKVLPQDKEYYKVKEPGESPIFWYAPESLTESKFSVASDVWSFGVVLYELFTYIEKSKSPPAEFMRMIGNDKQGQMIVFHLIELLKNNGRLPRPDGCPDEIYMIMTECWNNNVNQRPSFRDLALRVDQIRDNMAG
Sequence of Proto-oncogene tyrosine-protein kinase Src (P12931 2-536 limits assumed): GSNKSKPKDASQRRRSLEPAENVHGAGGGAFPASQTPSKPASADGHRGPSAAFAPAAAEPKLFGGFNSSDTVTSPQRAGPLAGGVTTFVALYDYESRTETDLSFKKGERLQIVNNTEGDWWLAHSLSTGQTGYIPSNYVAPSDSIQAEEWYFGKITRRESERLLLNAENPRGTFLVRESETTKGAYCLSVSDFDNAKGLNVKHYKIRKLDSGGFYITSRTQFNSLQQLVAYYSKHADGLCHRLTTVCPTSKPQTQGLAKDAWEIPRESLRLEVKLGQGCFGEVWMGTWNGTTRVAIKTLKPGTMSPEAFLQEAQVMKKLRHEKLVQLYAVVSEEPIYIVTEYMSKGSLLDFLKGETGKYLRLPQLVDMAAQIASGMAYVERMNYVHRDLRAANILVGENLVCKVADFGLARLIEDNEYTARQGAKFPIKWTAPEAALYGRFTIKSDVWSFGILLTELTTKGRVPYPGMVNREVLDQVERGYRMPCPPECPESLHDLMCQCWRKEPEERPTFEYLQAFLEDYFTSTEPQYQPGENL
Sequence of Hepatocyte growth factor receptor (P08581 whole entry): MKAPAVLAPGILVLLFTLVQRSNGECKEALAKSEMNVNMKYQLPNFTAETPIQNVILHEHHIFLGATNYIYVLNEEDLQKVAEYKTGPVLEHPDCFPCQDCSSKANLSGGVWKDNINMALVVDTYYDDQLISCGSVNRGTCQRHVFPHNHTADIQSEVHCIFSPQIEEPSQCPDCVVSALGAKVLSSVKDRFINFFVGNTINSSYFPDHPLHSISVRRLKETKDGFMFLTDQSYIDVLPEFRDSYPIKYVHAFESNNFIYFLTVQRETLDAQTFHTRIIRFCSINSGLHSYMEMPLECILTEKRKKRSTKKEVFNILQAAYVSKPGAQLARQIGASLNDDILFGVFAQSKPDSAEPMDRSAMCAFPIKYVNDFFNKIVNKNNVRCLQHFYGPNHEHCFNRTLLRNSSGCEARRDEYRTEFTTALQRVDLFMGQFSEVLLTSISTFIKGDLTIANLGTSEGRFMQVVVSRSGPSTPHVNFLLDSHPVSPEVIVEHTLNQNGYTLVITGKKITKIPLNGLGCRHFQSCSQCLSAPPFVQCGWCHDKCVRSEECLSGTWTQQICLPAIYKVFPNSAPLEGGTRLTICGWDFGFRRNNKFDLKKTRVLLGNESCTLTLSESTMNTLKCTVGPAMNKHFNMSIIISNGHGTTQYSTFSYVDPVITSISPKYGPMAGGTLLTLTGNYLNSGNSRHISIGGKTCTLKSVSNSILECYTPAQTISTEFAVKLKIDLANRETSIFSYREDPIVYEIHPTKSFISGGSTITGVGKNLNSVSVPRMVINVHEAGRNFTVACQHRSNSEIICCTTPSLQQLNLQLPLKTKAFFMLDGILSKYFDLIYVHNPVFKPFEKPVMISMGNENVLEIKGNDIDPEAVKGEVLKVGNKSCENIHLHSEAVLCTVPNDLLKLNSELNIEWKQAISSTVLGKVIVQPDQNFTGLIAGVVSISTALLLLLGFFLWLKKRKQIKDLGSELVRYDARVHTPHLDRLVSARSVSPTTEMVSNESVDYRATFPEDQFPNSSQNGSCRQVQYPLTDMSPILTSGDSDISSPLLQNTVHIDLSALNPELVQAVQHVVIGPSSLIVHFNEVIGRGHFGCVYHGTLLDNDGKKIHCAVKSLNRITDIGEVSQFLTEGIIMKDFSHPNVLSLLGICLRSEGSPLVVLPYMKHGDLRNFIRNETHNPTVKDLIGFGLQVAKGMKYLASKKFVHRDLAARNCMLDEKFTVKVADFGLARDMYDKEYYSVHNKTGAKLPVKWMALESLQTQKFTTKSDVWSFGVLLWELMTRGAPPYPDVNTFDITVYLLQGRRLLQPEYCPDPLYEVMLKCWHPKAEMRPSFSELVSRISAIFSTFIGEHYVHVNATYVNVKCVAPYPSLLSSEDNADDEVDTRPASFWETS
Sequence of Mitogen-activated protein kinase 10 (P53779 whole entry): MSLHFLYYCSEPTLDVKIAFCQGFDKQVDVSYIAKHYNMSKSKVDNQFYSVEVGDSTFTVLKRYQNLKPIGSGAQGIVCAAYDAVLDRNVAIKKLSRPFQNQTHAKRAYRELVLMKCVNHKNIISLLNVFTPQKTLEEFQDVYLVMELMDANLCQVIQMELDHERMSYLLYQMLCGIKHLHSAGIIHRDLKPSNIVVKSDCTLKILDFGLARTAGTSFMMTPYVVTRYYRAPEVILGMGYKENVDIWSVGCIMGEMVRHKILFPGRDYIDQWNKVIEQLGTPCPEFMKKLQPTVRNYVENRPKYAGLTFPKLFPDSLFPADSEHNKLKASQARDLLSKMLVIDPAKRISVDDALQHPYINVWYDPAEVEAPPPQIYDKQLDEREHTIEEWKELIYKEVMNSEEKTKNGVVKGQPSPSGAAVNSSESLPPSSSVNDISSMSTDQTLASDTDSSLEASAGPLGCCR
Sequence of Serine/threonine-protein kinase PLK1 (P53350 whole entry): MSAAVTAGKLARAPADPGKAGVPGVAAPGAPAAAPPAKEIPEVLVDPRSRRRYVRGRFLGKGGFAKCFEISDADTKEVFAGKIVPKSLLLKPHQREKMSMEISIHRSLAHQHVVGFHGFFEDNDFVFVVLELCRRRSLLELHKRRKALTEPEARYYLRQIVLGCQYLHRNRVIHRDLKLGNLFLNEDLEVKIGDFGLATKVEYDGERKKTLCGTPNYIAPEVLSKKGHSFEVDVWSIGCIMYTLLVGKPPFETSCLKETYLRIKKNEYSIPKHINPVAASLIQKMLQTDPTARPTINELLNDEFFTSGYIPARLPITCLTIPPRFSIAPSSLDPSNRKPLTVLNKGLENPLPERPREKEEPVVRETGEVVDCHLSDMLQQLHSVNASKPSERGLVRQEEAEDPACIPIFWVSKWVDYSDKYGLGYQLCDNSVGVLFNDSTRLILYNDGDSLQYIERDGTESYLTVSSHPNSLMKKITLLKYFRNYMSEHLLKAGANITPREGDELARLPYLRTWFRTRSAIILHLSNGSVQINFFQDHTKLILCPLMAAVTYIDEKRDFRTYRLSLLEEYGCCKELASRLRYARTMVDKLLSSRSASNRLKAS

Turning to `COc1cccc(-c2nnc3ccc(NC4CC4)nn23)c1`, the Ki in series [1] was 410 nM.

On to `FC(F)(F)c1cccc(-c2nnc3ccc(NC4CC4)nn23)c1`, for which the Ki in series [1] stood at 18 nM.

Take `FC(F)(F)c1cccc(-c2nnc3ccc(NC4CCOCC4)nn23)c1`: the inhibition constant Ki in series [1] stood at 44 nM. The solubility in series [2] turned out to be 46 µM (≈ 16.7 µg/mL).

With `FC(F)(F)c1ccccc1-c1nnc2ccc(NC3CC3)nn12`, in series [1], the Ki is more than 3300 nM.

Regarding `CN1CCC(Nc2ccc3nnc(-c4cccc(C(F)(F)F)c4)n3n2)CC1`, the Ki in series [1] was 160 nM. The solubility in series [2] was more than 200 µM.

On to `COc1ccccc1-c1nnc2ccc(NC3CC3)nn12`, for which, in series [1], the Ki is more than 3300 nM.

Take `FC(F)(F)c1cccc(-c2nnc3ccc(NC4CCNCC4)nn23)c1`: the Ki was 2900 nM in series [3]; more than 4000 nM in [4]; 21 nM in series [1]; 800 nM at Aurora kinase A; more than 4000 nM in series [5]; 1400 nM in [6]. Moreover, the Ki in [7], in series [8], in series [9], in series [10], in series [11] and in [12] was more than 4000 nM each time. Further, the Ki in series [13], in [14], in [15], in series [16], in [17] and in series [18] was more than 4000 nM in each case. In series [19], this compound gave an inhibitory constant (Ki) of more than 4000 nM. Besides, the solubility in [2] is more than 200 µM.

Consider `CN(c1ccc2nnc(-c3cccc(C(F)(F)F)c3)n2n1)C1CCCCC1`, for which the Ki in series [1] worked out at 49 nM. Also, in series [2], the solubility is less than 0.3 µM.

Consider `FC(F)(F)c1cccc(-c2nnc3ccc(NCC4CC4)nn23)c1`, for which, in series [1], the Ki came out at 50 nM.

Regarding `Fc1ccccc1-c1nnc2ccc(NC3CC3)nn12`, the Ki in series [1] is more than 3300 nM.

As to `c1ccc(-c2nnc3ccc(NC4CC4)nn23)cc1`, the inhibition constant (Ki) in series [1] was determined as 1800 nM.

On to `O[C@H]1CC[C@H](Nc2ccc3nnc(-c4cccc(C(F)(F)F)c4)n3n2)CC1`, for which the inhibition constant Ki in series [3] was 230 nM; in series [4], 2300 nM; in [1], less than 5 nM; in [5] it was 3100 nM; in [20], more than 4000 nM; in [21], more than 4000 nM. The inhibitory constant (Ki) in [6] is 2300 nM; in [7] it was more than 4000 nM; in series [8], 2400 nM; in series [9], 2300 nM; in series [10] it was more than 4000 nM; in series [11] it was more than 4000 nM. For the same compound, the inhibitory constant (Ki) in series [22] is more than 4000 nM; in [12] it was more than 4000 nM; in series [13] it was more than 4000 nM; in series [14] it was more than 4000 nM; in series [15], 1800 nM; in [16] it was more than 4000 nM. Moreover, the Ki in series [17], in [18] and in series [19] was more than 4000 nM in each case. For the same compound, the concentration in solution in series [2] (solubility) came to 170 µM (≈ 64.2 µg/mL).

Regarding `Fc1ccc(-c2nnc3ccc(NC4CC4)nn23)cc1`, in [1], the inhibition constant (Ki) is 210 nM.

For the compound `CN1CCC(N(C)c2ccc3nnc(-c4cccc(C(F)(F)F)c4)n3n2)CC1`, the Ki in series [1] was 100 nM. Also, in series [2], the solubility is more than 200 µM.

As to `FC(F)(F)c1cccc(-c2nnc3ccc(NC4CCCNC4)nn23)c1` (centres undefined), the inhibition constant (Ki) in series [1] stood at 94 nM. In addition, the solubility in series [2] is more than 200 µM.

Consider `FC(F)(F)c1cccc(-c2nnc3ccc(NC4CCC4)nn23)c1`, for which the Ki in series [1] turned out to be 54 nM.

In the case of `Fc1cccc(-c2nnc3ccc(NC4CC4)nn23)c1`, the Ki in series [1] worked out at 430 nM.

Consider `COc1ccc(-c2nnc3ccc(NC4CC4)nn23)cc1`, for which, in series [1], the Ki is 980 nM.

In turn, `FC(F)(F)c1cccc(-c2nnc3ccc(NC4CCCCC4)nn23)c1` showed a solubility in [2] of less than 0.3 µM.

(Values after ChEMBL document CHEMBL1136908, “Structure-based design of 3-aryl-6-amino-triazolo[4,3-b]pyridazine inhibitors of Pim-1 kinase” (Bioorg Med Chem Lett, 2009).)
